Counter-ions that a name gives are not always drawn.
Experiments:
hypoxic tumour cells = tested on: hypoxic tumour cells; parameters: method as in Brown et al., 1979; conditions: at equal tumour concentrations; ref Brown et al., 1979; cited from earlier work
[1] = Pharmacokinetics of MIS and Ro 05-9963 in plasma/blood, brain and tumour by HPLC after 1 g/kg MIS i.p.; conditions: for concentrations in whole blood compared with plasma: control studies
in vivo = conditions: male, BALB/c, mouse, ip, LD50(7d) (95% confidence limits), MIS single i.p.
body temperature = conditions: 1 g/kg MIS; all 3 pretreated groups (saline, phenobarbitone, phenytoin)
[2] = 1 g/kg; ref Brown et al., 1979; cited from earlier work
[3] = preliminary studies in man
BALB/c male mice = conditions: MIS single i.p. 1.117-2.5 g/kg
man = conditions: ref Dische et al., 1977; Urtasun et al., 1978; cited from earlier work
[4] = Pharmacokinetics of MIS and Ro 05-9963 after 1 g/kg MIS i.p. in B10 mice bearing the MC6B tumour; conditions: enzyme inducers; B10 strain
[5] = parameters: method as in Adams et al., 1976; conditions: ref Adams et al., 1976; cited from earlier work
mice = tested on: mice; parameters: method as in Brown et al., 1979; conditions: ref Brown et al., 1979; cited from earlier work
[6] = Body weight during pretreatment regime
[7] = tested on: microsomal drug-metabolizing enzymes; test: Pentobarbitone sleeping-time after pretreatment (index of microsomal enzyme induction); assay type: in vivo, tumour-free BALB/c mice; conditions: 60 mg/kg pentobarbitone i.p. on Day 9 after pretreatment regime
MC6B and EMT6 tumours = test: Tumour volume in pretreated mice; assay type: in vivo; conditions: usually not significant (P > 0.05)
[8] = Approximate acute LD50 of single doses of phenobarbitone and phenytoin; conditions: male, BALB/c, mouse, in vivo
liver weight = test: Liver/body weight ratio after pretreatment; assay type: in vivo, tumour-free BALB/c mice; conditions: Day 9 after pretreatment regime
[9] = phenobarbitone or phenytoin pretreatment (Discussion)

## COCC(O)Cn1ccnc1[N+](=O)[O-] (stereo not shown) [MIS, 1-(2-nitroimidazol-1-yl)-3-meth-oxypropan-22-ol]
Hypoxic tumour cells
  radiosensitizing efficiency of MIS and Ro 05-9963: equally good radiosensitizers
[1]; 1 g/kg MIS i.p., phenobarbitone or phenytoin pretreatment vs control, plasma, brain and tumour
  reduction of apparent elimination half-life (t1/2) for MIS: 20-67%
[1]; 1 g/kg MIS i.p., phenobarbitone or phenytoin pretreatment, plasma, brain and tumour
  decrease of area under the curve (AUC) for MIS: 23-49%
[1]
  concentrations in whole blood compared with plasma: identical
[1]; male, BALB/c, mouse, tumour and brain / plasma, ip, 1 g/kg
  Kp: ~0.5
[1]; phenobarbitone and phenytoin pretreatment, plasma, brain or tumour
  effect of pretreatment on peak MIS concentration: did not alter
[1]; [9]
  decrease of blood (or plasma) MIS AUC: 25- 60%
  shortening of apparent t1/2 for MIS elimination from blood or plasma: 35-60%
In vivo; pretreatment phenobarbitone
  LD50 at 7 days: 1900 mg/kg
In vivo; pretreatment phenytoin
  LD50 at 7 days: 1780 mg/kg
In vivo; pretreatment saline (control)
  LD50 at 7 days: 1540 mg/kg
Body temperature
  change in body temperature after MIS: marked decrease in temperature
[2]
  t1/2 of MIS after bilateral kidney ligation: prolonged after bilateral kidney ligation
[3]
  MIS t1/2 and AUC with phenytoin therapy: both reduced
BALB/c male mice
  time of deaths after treatment: 3 to 4 days
man
  peripheral neuropathy in man: dose-limiting toxicity

## O=[N+]([O-])c1nccn1CC(O)CO (stereo not shown) [Ro 05-9963, 1-(2-nitroimidazol-1-yl)-2,3-propandiol]
[4]
  increase of blood (or plasma) AUC for metabolite Ro 05-9963: 100%
Hypoxic tumour cells
  radiosensitizing efficiency of MIS and Ro 05-9963: equally good radiosensitizers
[5]
  lipophilicity compared with MIS: considerably less lipophilic than MIS
[1]
  concentrations in whole blood compared with plasma: identical
[1]; enzyme inducers, BALB/c mice
  increase of blood (or plasma) AUC for metabolite Ro 05-9963: 10-60%
mice
  LD50 compared with MIS: higher LD50 than MIS

## CCC1(c2ccccc2)C(=O)NC(=O)NC1=O [phenobarbitone]
[6]; normally completely regained by Day 9
  initial weight loss during pretreatment regime: up to 10%
[7]
  pentobarbitone sleeping-time, % of untreated control: 36%
  pentobarbitone sleeping-time, mean: 26 min
MC6B and EMT6 tumours
  tumour volumes lower than the saline controls: up to 10%

## O=C1NC(=O)C(c2ccccc2)(c2ccccc2)N1 [phenytoin, 5.5-diphenylhydantoin, sodium salt]
[6]; mouse, in vivo
  weight loss during pretreatment: little or no weight loss
[7]
  pentobarbitone sleeping-time, % of untreated control: 30%
MC6B and EMT6 tumours
  tumour volumes lower than the saline controls: up to 10%
[8]
  LD50: 200 to 240 mg/kg
Liver weight
  liver wt/body wt, % of untreated control: 124%

Source: paper PMC2010042, “Effects of pretreatment with phenobarbitone and phenytoin on the pharmacokinetics and toxicity of phenytoin on the pharmacokinetics and toxicity of misonidazole in mice” (British Journal of Cancer, 1979)
